Like-named read-outs stand apart in the source and are kept apart here. Starred links: 1 amine or outer side, 2 acyl side, 3 side chain; linkers in the order of their positions; H or OH if unused. Non-standard residues stand in square brackets, D forms with d. Residues, ends and D or L forms follow the SMILES beside them. Groups on a side chain read outwards from the residue. *: point of attachment. C20 diacid = O=C(O)CCCCCCCCCCCCCCCCCCC(=O)*; Pro(4S-NH2) = N[C@@H]1CN[C@H](C(=O)O)C1; γGlu = O=C(O)[C@H](CCC(=O)[*:2])N[*:1]; NMeI = CC[C@H](C)[C@H](NC)C(=O)O; Nle = CCCC[C@H](N)C(=O)O; AEEA = NCCOCCOCC(=O)O; Aib = CC(C)(N)C(=O)O

For one test, the target named is T1, hCRHR1 (Homo sapiens, UniProt P34998).
T1 sequence (P34998 24-415): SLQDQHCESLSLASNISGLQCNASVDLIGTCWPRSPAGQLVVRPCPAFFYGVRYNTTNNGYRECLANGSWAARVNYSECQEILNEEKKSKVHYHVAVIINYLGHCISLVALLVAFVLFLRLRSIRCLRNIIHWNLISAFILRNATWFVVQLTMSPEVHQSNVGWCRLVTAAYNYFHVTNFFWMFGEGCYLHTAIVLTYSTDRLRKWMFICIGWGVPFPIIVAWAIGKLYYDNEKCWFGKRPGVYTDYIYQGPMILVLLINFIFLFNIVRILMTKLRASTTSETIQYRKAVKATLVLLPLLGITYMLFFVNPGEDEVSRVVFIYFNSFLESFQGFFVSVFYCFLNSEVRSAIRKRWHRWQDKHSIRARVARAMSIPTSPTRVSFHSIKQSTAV
Put plainly: HTRF cAMP assay, determination of hCRHR1 potency (peptide libraries 5 conc., purified peptides 11 conc.). It counts as cell-based. The procedure, abridged: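 CHO-K1 cells stably expressing human CRHR1, thawed from frozen stocks just before use, were stimulated in suspension with agonist peptides. cAMP was measured by HTRF competitive immunoassay (cryptate anti-cAMP antibody vs d2-cAMP).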
In general terms: In TR-FRET formats the signal depends on donor and acceptor labels being close together.

The next test concerns the target T2, hCRHR2 (Homo sapiens, UniProt Q13324).
T2 sequence (Q13324 1-411): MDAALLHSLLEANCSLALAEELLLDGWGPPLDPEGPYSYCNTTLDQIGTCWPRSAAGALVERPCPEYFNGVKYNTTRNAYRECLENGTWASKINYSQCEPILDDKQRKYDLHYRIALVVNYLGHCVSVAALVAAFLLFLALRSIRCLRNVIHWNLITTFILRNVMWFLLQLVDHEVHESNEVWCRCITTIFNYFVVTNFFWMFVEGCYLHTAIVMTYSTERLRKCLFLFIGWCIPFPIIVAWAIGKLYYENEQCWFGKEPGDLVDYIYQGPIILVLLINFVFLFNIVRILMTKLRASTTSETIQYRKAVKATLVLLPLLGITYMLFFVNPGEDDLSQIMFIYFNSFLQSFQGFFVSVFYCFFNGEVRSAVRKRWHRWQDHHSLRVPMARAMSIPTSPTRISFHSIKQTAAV
The test is described as follows: HTRF cAMP assay, determination of hCRHR2 potency (peptide libraries 5 conc., purified peptides 11 conc.). It counts as cell-based. The procedure, abridged:
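Potency was read as cAMP accumulation in a stable CHO-K1 line expressing human CRHR2, used in suspension right after thawing. Detection relied on energy transfer from antibody-bound cryptate to d2-cAMP.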

Where [1] appears, read: Table 3, matched molecular pairs X^38 L vs Nle, peptide library of Example 4, read-out: hCRHR1 pEC50 (converted).
The mark [2] stands for this setting: Table 3, matched molecular pairs X^38 L vs Nle, peptide library of Example 4, read-out: hCRHR2 pEC50 (converted).
The mark [3] stands for this setting: library peptides, matched molecular pairs L vs Nle in position X^38, read-out: Potency hCRHR1 pEC50 (converted).
The mark [4] stands for this setting: library peptides, matched molecular pairs L vs Nle in position X^38, read-out: Potency hCRHR2 pEC50 (converted).

Consider `CCCC[C@H](NC(=O)[C@@H](NC(=O)[C@H](CCC(=O)O)NC(=O)C(C)(C)NC(=O)[C@H](CC(N)=O)NC(=O)[C@@H](NC(=O)[C@H](CCCCNC(=O)COCCOCCNC(=O)COCCOCCNC(=O)CC[C@H](NC(=O)CC[C@H](NC(=O)CCCCCCCCCCCCCCCCCCC(=O)O)C(=O)O)C(=O)O)NC(=O)[C@H](C)NC(=O)[C@H](CCC(N)=O)NC(=O)[C@H](CCC(=O)O)NC(=O)[C@H](CCCNC(=N)N)NC(=O)[C@H](C)NC(=O)[C@H](C)NC(=O)[C@H](CCCNC(=N)N)NC(=O)[C@H](C)NC(=O)[C@H](CCCNC(=N)N)NC(=O)[C@H](C)NC(=O)[C@H](CCC(N)=O)NC(=O)[C@@H](NC(=O)[C@H](CC(C)C)NC(=O)[C@H](CC(C)C)NC(=O)[C@@H](NC(=O)[C@H](CCC(N)=O)NC(=O)[C@H](CC(C)C)NC(=O)[C@H](CC(C)C)NC(=O)CNC(=O)[C@@H](NC(=O)[C@@H]1CCCN1C(=O)[C@@H](NC(=O)[C@H](CC(=O)O)NC(=O)[C@H](CC(C)C)NC(=O)[C@H](CO)NC(=O)[C@H](CC(C)C)NC(=O)[C@@H](NC(=O)[C@@H](NC)[C@@H](C)CC)C(C)C)C(C)C)[C@@H](C)CC)[C@@H](C)CC)[C@@H](C)CC)[C@@H](C)O)[C@@H](C)CC)C(=O)N[C@@H](C)C(=O)N[C@@H](CCC(=O)O)C(=O)N[C@H](C(N)=O)C(C)C` [compound 209] (H-[NMeI]VLSLDVPIGLLQILLIQARARAAREQAK([AEEA-AEEA-γGlu-γGlu-C20 diacid])TN[Aib]EI[Nle]AEV-NH2), for which the EC50 was 3160 nM on hCRHR1 (Table 4, library peptides having X^38 = Nle, read-out: hCRHR1 pEC50 (converted)) and 0.02 nM on hCRHR2 (Table 4, library peptides having X^38 = Nle, read-out: hCRHR2 pEC50 (converted)).

On to `CCCC[C@H](NC(=O)[C@@H](NC(=O)[C@H](CCC(=O)O)NC(=O)[C@H](C)NC(=O)[C@H](CC(N)=O)NC(=O)[C@@H](NC(=O)[C@H](CCCCNC(=O)COCCOCCNC(=O)COCCOCCNC(=O)CC[C@H](NC(=O)CC[C@H](NC(=O)CCCCCCCCCCCCCCCCCCC(=O)O)C(=O)O)C(=O)O)NC(=O)[C@H](C)NC(=O)[C@H](CCC(N)=O)NC(=O)[C@H](CCC(=O)O)NC(=O)[C@H](CCCNC(=N)N)NC(=O)[C@H](C)NC(=O)[C@H](C)NC(=O)[C@H](CCC(=O)O)NC(=O)[C@H](C)NC(=O)[C@H](CCCNC(=N)N)NC(=O)[C@H](C)NC(=O)[C@H](CCC(N)=O)NC(=O)[C@H](CCC(=O)O)NC(=O)[C@H](CC(C)C)NC(=O)[C@H](CC(C)C)NC(=O)[C@@H](NC(=O)[C@H](CCC(N)=O)NC(=O)[C@H](CC(C)C)NC(=O)[C@H](CC(C)C)NC(=O)CNC(=O)[C@@H](NC(=O)[C@@H]1CCCN1C(=O)[C@@H](NC(=O)[C@H](CC(=O)O)NC(=O)[C@H](CC(C)C)NC(=O)[C@H](CO)NC(=O)[C@H](CC(C)C)NC(=O)[C@@H](NC(=O)[C@@H](N)[C@@H](C)CC)C(C)C)C(C)C)[C@@H](C)CC)[C@@H](C)CC)[C@@H](C)O)[C@@H](C)CC)C(=O)N[C@@H](C)C(=O)N[C@@H](CCC(=O)O)C(=O)N[C@H](C(N)=O)C(C)C` [SEQ ID NO: 26] (H-IVLSLDVPIGLLQILLEQARAEAAREQAK([AEEA-AEEA-γGlu-γGlu-C20 diacid])TNAEI[Nle]AEV-NH2), for which the EC50 on hCRHR1 (setting [1]) was 251 nM; at hCRHR2 (setting [2]), 0.316 nM.

On to `CC[C@H](C)[C@H](N)C(=O)N[C@H](C(=O)N[C@@H](CC(C)C)C(=O)N[C@@H](CO)C(=O)N[C@@H](CC(C)C)C(=O)N[C@@H](CC(=O)O)C(=O)N[C@H](C(=O)N1C[C@@H](N)C[C@H]1C(=O)N[C@H](C(=O)NCC(=O)N[C@@H](CC(C)C)C(=O)N[C@@H](CC(C)C)C(=O)N[C@@H](CCC(N)=O)C(=O)N[C@H](C(=O)N[C@@H](CC(C)C)C(=O)N[C@@H](CC(C)C)C(=O)N[C@@H](CCC(=O)O)C(=O)N[C@@H](CCC(N)=O)C(=O)N[C@@H](C)C(=O)N[C@@H](CCCNC(=N)N)C(=O)N[C@@H](C)C(=O)N[C@@H](CCCNC(=N)N)C(=O)N[C@H](C(=O)N[C@@H](C)C(=O)N[C@@H](CCCNC(=N)N)C(=O)N[C@@H](CCC(=O)O)C(=O)N[C@@H](CCC(N)=O)C(=O)N[C@@H](C)C(=O)N[C@@H](CCCCNC(=O)COCCOCCNC(=O)COCCOCCNC(=O)CC[C@H](NC(=O)CC[C@H](NC(=O)CCCCCCCCCCCCCCCCCCC(=O)O)C(=O)O)C(=O)O)C(=O)N[C@H](C(=O)N[C@@H](CC(N)=O)C(=O)N[C@@H](C)C(=O)N[C@@H](CCC(=O)O)C(=O)N[C@H](C(=O)N[C@@H](CC(C)C)C(=O)N[C@@H](C)C(=O)N[C@@H](CCC(=O)O)C(=O)N[C@H](C(N)=O)C(C)C)[C@@H](C)CC)[C@@H](C)O)C(C)C)[C@@H](C)CC)[C@@H](C)CC)C(C)C)C(C)C` [compound 76] (H-IVLSLDV[Pro(4S-NH2)]IGLLQILLEQARARVAREQAK([AEEA-AEEA-γGlu-γGlu-C20 diacid])TNAEILAEV-NH2), for which the EC50 on hCRHR1 (setting [3]) and on hCRHR2 (setting [4]) was 1.58 nM in each case.

Consider `CC[C@H](C)[C@H](N)C(=O)N[C@H](C(=O)N[C@@H](CC(C)C)C(=O)N[C@@H](CO)C(=O)N[C@@H](CC(C)C)C(=O)N[C@@H](CC(=O)O)C(=O)N[C@H](C(=O)N1CCC[C@H]1C(=O)N[C@H](C(=O)NCC(=O)N[C@@H](CC(C)C)C(=O)N[C@@H](CC(C)C)C(=O)N[C@@H](CCC(N)=O)C(=O)N[C@H](C(=O)N[C@@H](CC(C)C)C(=O)N[C@@H](CC(C)C)C(=O)N[C@@H](CCC(=O)O)C(=O)N[C@@H](CCC(N)=O)C(=O)N[C@@H](C)C(=O)N[C@@H](CCCNC(=N)N)C(=O)N[C@@H](C)C(=O)N[C@@H](CCCNC(=N)N)C(=O)N[C@@H](CO)C(=O)N[C@@H](C)C(=O)N[C@@H](CCCNC(=N)N)C(=O)N[C@@H](CCC(=O)O)C(=O)N[C@@H](CCC(N)=O)C(=O)N[C@@H](C)C(=O)N[C@@H](CCCCNC(=O)COCCOCCNC(=O)COCCOCCNC(=O)CC[C@H](NC(=O)CC[C@H](NC(=O)CCCCCCCCCCCCCCCCCCC(=O)O)C(=O)O)C(=O)O)C(=O)N[C@H](C(=O)N[C@@H](CC(N)=O)C(=O)N[C@@H](C)C(=O)N[C@@H](CCC(=O)O)C(=O)N[C@H](C(=O)N[C@@H](CC(C)C)C(=O)N[C@@H](C)C(=O)N[C@@H](CCC(=O)O)C(=O)N[C@H](C(N)=O)[C@@H](C)CC)[C@@H](C)CC)[C@@H](C)O)[C@@H](C)CC)[C@@H](C)CC)C(C)C)C(C)C` [SEQ ID NO: 35] (H-IVLSLDVPIGLLQILLEQARARSAREQAK([AEEA-AEEA-γGlu-γGlu-C20 diacid])TNAEILAEI-NH2), for which the results for the EC50 at hCRHR1 (setting [1]) and on hCRHR2 (setting [2]) were 79400 nM and 0.501 nM, respectively.

For the compound `CC[C@H](C)[C@H](N)C(=O)N[C@H](C(=O)N[C@@H](CC(C)C)C(=O)N[C@@H](CO)C(=O)N[C@@H](CC(C)C)C(=O)N[C@@H](CC(=O)O)C(=O)N[C@H](C(=O)N1CCC[C@H]1C(=O)N[C@H](C(=O)NCC(=O)N[C@@H](CC(C)C)C(=O)N[C@@H](CC(C)C)C(=O)N[C@@H](CCC(N)=O)C(=O)N[C@H](C(=O)N[C@@H](CC(C)C)C(=O)N[C@@H](CC(C)C)C(=O)N[C@@H](CCC(=O)O)C(=O)N[C@@H](CCC(N)=O)C(=O)N[C@@H](C)C(=O)N[C@@H](CCCNC(=N)N)C(=O)N[C@@H](C)C(=O)N[C@@H](CCCNC(=N)N)C(=O)N[C@@H](CO)C(=O)N[C@@H](CCC(N)=O)C(=O)N[C@@H](CCCNC(=N)N)C(=O)N[C@@H](CCC(=O)O)C(=O)N[C@@H](CCC(=O)O)C(=O)N[C@@H](C)C(=O)N[C@@H](CCCCNC(=O)COCCOCCNC(=O)COCCOCCNC(=O)CC[C@H](NC(=O)CC[C@H](NC(=O)CCCCCCCCCCCCCCCCCCC(=O)O)C(=O)O)C(=O)O)C(=O)N[C@H](C(=O)N[C@@H](CC(N)=O)C(=O)N[C@@H](C)C(=O)N[C@@H](CCC(=O)O)C(=O)N[C@H](C(=O)N[C@@H](CC(C)C)C(=O)N[C@@H](C)C(=O)N[C@@H](CCC(=O)O)C(=O)N[C@H](C(N)=O)C(C)C)[C@@H](C)CC)[C@@H](C)O)[C@@H](C)CC)[C@@H](C)CC)C(C)C)C(C)C` [compound 70] (H-IVLSLDVPIGLLQILLEQARARSQREEAK([AEEA-AEEA-γGlu-γGlu-C20 diacid])TNAEILAEV-NH2), the EC50 on hCRHR1 (setting [3]) is 158000 nM; at hCRHR2 (setting [4]), 1.26 nM.
